Measurements published in patent US20110217265A1, “Screening for Inhibitors of HCV Amphipathic Helix (AH) Function” (priority 2008, published 2011).

Columns and labels:
2a HCV RNA replicon = 2a HCV RNA replicon assay (FL-J6/JFH-5'C19Rluc2AUbi, luciferase); type: cell-based, Hepatitis C Virus genotype 2a; settings: full-length J6/JFH Luc, luciferase at 72 hr of treatment
In short: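 Huh7.5 cells electroporated with in vitro-transcribed FL-J6/JFH-5′C19Rluc2AUbi RNA (full-length genotype 2a, Renilla luciferase) and treated from 24 h, with compound refreshed daily for 72 h. Replication measured as Renilla luminescence, normalized to untreated or matched-DMSO samples. Alamar Blue fluorescence on the same wells assessed cytotoxicity.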

4BAH2 peptide = molecular target: T1, 4BAH2 peptide (Hepatitis C virus genotype 1b, UniProt Q9WMX2); assay: AFM of 4BAH2 peptide oligomerization on SiOx substrate; type: biochemical
T1 construct: purchased Anaspec Corporation (San Jose, Calif., USA); host or cells: chemical synthesis
Description: Atomic Force Microscopy. The AFM experiments were carried out on a XE-Bio (Park Systems Suwon, Korea) in contact and non-contact modes. Rectangular-shaped silicon cantilevers were used (SICON for contact mode and ACT for non-contact mode, AppNano, Santa Clara, Calif.). […] All measurements were performed in a PBS buffer. Images in fluid were obtained both in contact mode with an imaging force of less than 200 pN and in noncontact mode. However, images presented in this manuscript were only obtained in non-contact mode in fluid. The scan line speed was optimized between 0.3 Hz to 1 Hz with a pixel number of 256×256, depending on the scan size. Images were recorded in height, amplitude, phase, and error modes. All measurements were done on the height images. All images shown were subjected to a first order plane-fitting procedure to compensate for sample tilt. The cross-sectional analysis was carried out on images subjected only to a first order plane-fitting procedure. Topographical and grain analyses were performed using the software XEI 1.7.1 supplied by Park Systems (Suwon, Korea).

[1] = test system: genotype 2b luciferase reporter-linked HCV replicons; assay: HCV replication assay in combination with NS3 protease inhibitor SCH503034; type: cell-based, Hepatitis C Virus; settings: combination with various concentrations of SCH503034, FIG. 11
Description: FIG. 11. 4BAH2 inhibitors can increase the anti-HCV activity of agents targeting other elements of HCV. The compound of FIG. 10 was tested in standard HCV replication assays as in FIG. 10 but in the presence of various concentrations of an NS3 protease inhibitor (SCH503034, “SCH”). Note that in these assays a genotype 2b luciferase reporter-linked HCV replicons was used, indicating the broad spectrum potential of the C4 compound against multiple HCV genotypes.
To determine the optimum combination of an HCV AH function inhibiting agent, such as 5-(N-Methyl-N-isobutyl)amiloride, with other anti-HCV agents, HCV replication assays and/or animal studies can be performed in the presence of various combinations of the various anti-HCV agents. Increased inhibition of replication in the presence of an additional agent (above that observed with monotherapy) is evidence for the potential benefit of the combination therapy. For example, HCV replication assays employing a luciferase reporter-linked HCV genome in the presence of various combinations of 3-amino-N-carbamimidoyl-6-chloro-5-(isobutyl(methyl)amino)pyrazine-2-carboxamidepyrazine-2-carboxamide and an NS3 protease inhibitor (SCH503034) are described elsewhere in this application and some results are shown in FIG. 11.
Effect of hits on HCV replication. […]

T1 sequence (Q9WMX2 1754-1776): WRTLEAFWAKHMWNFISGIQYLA

`CC(C)CN(C)c1nc(N)c(C(=O)NC(=N)N)nc1Cl` [C4, 3-amino-N-carbamimidoyl-6-chloro-5-(isobutyl(methyl)amino)pyrazine-2-carboxamide] was tested, and the “Inhibition of HCV genotype 2a viral genome replication” value (2a HCV RNA replicon) was “exhibited inhibition”, the “Effect on 4BAH2 peptide aggregation / self-oligomerization (AFM)” value (4BAH2 peptide) was “inhibit peptide aggregation” and the “Effect on anti-HCV activity of NS3 protease inhibitor SCH503034” value [1] was “increases the anti-HCV activity”.
